Experimental data: US7945392B2, “Methods and systems for drug screening and computational modeling based on biologically realistic neurons” (McLean Hospital Corporation, priority 2005, dated 2011)

Key:
[1] = highly selective antagonist at the D4 receptor; cited from earlier work
[2] = biological target: D1 receptor (Homo sapiens, UniProt P21728); experiment: Fraction of receptors occupied, calculated from drug concentration and Ki; conditions: at a therapeutic olanzapine level
Text: In particular, affinities of many drugs for receptors are well known. For example, Goodman and Gilmans “The Pharmacological Basis of Therapeutics,” Tenth Edition.

D1 receptor, sequence (P21728 whole entry): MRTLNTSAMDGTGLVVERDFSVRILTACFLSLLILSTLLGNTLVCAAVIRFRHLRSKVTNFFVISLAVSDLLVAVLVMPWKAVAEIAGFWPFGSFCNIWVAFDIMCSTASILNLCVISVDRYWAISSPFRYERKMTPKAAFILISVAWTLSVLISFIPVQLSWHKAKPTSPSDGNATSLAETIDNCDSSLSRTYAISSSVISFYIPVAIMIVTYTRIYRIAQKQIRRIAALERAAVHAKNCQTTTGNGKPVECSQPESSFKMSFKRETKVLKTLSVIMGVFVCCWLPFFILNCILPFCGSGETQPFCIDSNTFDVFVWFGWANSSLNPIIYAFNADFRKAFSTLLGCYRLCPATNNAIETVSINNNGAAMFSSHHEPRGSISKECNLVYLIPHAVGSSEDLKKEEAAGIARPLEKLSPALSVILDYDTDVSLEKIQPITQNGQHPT

| Compound | antipsychotic effectiveness [1] | D1 receptors blocked (antagonized) [2] |
| --- | --- | --- |
| Clc1ccc(N2CCN(Cc3c[nH]c4ncccc34)CC2)cc1 [L-745870] | ineffective | – |
| Cc1cc2c(s1)Nc1ccccc1N=C2N1CCN(C)CC1 [olanzapine] | – | approximately 47% |
